Our source for the Kd values is article PMC10687582, “Herpetrione, a New Type of PPARα Ligand as a Therapeutic Strategy Against Nonalcoholic Steatohepatitis” (Research, 2023).

Each structure is given as a SMILES string.

The target in this experiment is T1, PPARα (Homo sapiens, UniProt Q07869).
T1 construct: gene PPARA
T1 sequence (Q07869 200-468 limits assumed): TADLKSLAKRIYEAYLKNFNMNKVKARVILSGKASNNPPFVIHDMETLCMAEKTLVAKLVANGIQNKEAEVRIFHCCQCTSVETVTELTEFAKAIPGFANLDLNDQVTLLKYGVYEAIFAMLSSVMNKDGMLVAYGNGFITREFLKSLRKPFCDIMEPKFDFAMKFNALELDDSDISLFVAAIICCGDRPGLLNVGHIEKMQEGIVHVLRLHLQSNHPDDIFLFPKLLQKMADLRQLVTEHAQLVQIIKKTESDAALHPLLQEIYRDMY
The experiment in a line: ITC (KD […]; WT in the mutant comparison […]); SPR KD […]; CETSA and DARTS in HepG2 lysates. It counts as binding.

As a reminder, the Kd is the free concentration of one partner at which half of the binding sites on the other are occupied at equilibrium, for simple one-to-one binding. Low readings indicate a tighter complex, high ones a looser complex. Take `COc1cc(C(=O)C(CO)c2cc(C3OCC4C(c5ccc(O)c(OC)c5)OCC34)cc(OC)c2O)ccc1O` (stereo not shown) [herpetrione]: the affinity, expressed as Kd, was 3.27 µM.
